Experimental data published in publication PMC11062922 (Nature Chemical Biology, 2023).

How the values were obtained:
ACOX1 = biological target: T1, ACOX1 (Homo sapiens, UniProt Q15067); assay: Kinobeads two-dose competition binding: ACOX1; conditions: for CATDS: sheet CATDS matrix 2, Gene Name ACOX1; for potency estimated from few doses: sheet "Kinobeads Drugmatrix -nanomolar" (only nanomolar interactions), read-out: Kinobeads Drugmatrix -nanomolar: apparent Kd, ACOX1;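 as to all read-outs here: competition of compounds with immobilized broad-spectrum kinase inhibitor beads in cell lysate at 100 and 1,000 nM, 45 min at 4 °C, bead-bound protein quantified by label-free MS versus DMSO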
T1 construct: endogenous in cells
T1 sequence (Q15067 1-660): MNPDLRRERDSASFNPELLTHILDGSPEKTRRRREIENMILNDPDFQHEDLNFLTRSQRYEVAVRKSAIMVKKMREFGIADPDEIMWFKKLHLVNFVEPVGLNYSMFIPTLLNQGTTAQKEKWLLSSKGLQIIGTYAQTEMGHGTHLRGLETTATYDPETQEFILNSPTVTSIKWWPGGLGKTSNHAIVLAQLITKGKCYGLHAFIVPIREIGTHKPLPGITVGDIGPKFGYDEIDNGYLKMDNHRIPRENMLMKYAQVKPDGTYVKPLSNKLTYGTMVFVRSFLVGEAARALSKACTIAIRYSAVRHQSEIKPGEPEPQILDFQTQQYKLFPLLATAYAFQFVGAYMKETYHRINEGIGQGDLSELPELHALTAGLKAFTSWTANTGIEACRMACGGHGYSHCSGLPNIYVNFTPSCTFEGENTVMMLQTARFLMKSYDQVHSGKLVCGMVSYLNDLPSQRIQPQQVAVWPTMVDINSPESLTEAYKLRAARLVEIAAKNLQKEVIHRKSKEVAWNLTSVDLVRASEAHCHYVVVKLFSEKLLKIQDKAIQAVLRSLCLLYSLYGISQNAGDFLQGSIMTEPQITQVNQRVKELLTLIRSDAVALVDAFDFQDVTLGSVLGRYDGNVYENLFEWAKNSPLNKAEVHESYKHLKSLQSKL

AAK1 = biological target: T2, AAK1 (Homo sapiens, UniProt Q2M2I8); assay: Kinobeads two-dose competition binding: AAK1; conditions: for CATDS: sheet CATDS matrix 2, Gene Name AAK1;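 as to all read-outs here: kinobeads competition pulldown from cell lysate, compound preincubated 45 min at 4 °C, bead-bound protein measured by label-free mass spectrometry against DMSO vehicle control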
T2 construct: to maximize the representation of endogenous proteins; endogenous in cells
T2 sequence (Q2M2I8 whole entry): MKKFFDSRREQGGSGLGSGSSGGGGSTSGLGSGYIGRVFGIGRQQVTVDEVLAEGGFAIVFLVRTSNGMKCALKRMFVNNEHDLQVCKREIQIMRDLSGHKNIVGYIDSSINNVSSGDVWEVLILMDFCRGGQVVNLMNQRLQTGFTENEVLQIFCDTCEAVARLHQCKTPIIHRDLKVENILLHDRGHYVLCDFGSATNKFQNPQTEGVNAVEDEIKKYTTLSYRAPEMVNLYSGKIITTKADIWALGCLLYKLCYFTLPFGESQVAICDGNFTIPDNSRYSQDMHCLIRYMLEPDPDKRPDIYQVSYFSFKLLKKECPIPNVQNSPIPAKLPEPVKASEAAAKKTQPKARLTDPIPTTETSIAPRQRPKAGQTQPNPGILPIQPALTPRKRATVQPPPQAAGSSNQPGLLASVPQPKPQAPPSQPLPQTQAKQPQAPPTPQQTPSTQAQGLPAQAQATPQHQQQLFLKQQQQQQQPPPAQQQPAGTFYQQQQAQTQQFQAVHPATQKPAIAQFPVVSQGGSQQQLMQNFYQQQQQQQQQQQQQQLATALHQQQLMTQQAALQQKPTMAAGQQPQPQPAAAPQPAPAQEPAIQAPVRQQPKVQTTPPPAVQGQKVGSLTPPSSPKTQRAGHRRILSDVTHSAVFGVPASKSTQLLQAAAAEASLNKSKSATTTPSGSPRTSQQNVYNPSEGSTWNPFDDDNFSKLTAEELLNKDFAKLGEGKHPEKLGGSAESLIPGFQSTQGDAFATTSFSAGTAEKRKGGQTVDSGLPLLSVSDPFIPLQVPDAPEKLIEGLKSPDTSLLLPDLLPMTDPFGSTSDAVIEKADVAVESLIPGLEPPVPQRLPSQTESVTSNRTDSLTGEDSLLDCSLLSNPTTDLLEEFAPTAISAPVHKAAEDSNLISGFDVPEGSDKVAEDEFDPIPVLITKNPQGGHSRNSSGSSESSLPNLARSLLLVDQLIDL

ABL1 = ABL1 (Homo sapiens, UniProt P00519); assay: Kinobeads two-dose competition binding: ABL1; conditions: sheet CATDS matrix 2; Gene Name ABL1
Chain of ABL1 (P00519 28-1130 limits assumed): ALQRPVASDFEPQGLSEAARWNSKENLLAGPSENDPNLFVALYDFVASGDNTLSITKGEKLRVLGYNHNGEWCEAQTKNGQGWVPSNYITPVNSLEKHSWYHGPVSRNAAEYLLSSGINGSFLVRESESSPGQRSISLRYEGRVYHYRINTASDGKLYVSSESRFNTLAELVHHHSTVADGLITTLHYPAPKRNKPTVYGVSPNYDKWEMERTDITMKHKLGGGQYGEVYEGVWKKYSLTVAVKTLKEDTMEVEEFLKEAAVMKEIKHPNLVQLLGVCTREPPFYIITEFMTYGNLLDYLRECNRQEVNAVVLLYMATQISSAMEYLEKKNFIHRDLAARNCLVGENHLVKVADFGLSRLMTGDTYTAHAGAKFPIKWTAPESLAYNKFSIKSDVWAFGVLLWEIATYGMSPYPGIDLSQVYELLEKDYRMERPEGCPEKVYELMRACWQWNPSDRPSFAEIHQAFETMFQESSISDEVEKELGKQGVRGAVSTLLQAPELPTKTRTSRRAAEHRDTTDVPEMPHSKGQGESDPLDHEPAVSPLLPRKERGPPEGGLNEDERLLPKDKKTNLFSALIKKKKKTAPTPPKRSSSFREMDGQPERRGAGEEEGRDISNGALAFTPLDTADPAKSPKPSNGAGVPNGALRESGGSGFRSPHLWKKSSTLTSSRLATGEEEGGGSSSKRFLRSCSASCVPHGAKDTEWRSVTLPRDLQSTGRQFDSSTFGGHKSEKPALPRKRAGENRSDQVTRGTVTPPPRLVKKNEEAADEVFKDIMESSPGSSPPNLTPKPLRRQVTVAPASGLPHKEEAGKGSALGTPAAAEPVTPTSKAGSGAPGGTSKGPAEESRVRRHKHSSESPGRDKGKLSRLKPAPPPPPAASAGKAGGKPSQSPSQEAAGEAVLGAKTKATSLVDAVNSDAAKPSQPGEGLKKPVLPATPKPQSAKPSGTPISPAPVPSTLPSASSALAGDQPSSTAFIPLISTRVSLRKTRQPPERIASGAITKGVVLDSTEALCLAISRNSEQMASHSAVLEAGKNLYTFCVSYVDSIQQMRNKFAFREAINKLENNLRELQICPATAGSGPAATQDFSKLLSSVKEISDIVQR

ABL2 = biological target: T3, ABL2 (Homo sapiens, UniProt P42684); assay: Kinobeads two-dose competition binding: ABL2; conditions: sheet CATDS matrix 2; Gene Name ABL2
T3 construct: endogenous in cells
T3 sequence (P42684 whole entry): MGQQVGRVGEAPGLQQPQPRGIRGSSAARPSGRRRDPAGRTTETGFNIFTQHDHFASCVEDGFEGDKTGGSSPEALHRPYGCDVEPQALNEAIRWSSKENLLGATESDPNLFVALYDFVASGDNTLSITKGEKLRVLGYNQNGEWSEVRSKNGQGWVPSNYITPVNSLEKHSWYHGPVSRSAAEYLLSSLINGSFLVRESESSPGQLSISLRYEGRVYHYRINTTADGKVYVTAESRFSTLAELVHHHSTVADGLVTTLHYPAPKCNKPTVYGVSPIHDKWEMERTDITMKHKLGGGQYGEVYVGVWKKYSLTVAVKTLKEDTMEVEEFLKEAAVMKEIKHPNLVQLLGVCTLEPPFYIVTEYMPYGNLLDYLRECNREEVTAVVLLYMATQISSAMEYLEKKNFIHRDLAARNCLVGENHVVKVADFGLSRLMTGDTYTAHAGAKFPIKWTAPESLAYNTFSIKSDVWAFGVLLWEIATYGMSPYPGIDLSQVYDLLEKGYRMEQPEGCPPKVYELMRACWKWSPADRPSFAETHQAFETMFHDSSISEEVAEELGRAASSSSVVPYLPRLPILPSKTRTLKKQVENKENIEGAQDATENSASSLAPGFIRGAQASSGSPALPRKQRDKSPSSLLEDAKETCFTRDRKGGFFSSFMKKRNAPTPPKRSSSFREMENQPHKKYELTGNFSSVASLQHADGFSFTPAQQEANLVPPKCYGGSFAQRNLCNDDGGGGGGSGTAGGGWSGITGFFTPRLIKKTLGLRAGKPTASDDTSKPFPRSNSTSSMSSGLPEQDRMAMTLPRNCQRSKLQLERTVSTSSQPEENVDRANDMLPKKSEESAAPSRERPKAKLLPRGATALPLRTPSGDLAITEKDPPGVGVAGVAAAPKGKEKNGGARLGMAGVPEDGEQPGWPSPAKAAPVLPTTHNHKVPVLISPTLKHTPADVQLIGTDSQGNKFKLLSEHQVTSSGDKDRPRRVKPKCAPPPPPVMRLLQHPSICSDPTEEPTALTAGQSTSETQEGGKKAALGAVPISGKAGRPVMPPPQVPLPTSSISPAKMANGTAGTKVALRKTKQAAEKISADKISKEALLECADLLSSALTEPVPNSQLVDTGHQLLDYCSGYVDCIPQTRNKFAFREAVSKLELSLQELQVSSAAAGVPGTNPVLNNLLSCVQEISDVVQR

ACAD11 = biological target: T4, ACAD11 (Homo sapiens, UniProt Q709F0); assay: Kinobeads two-dose competition binding: ACAD11; conditions: sheet CATDS matrix 2; Gene Name ACAD11
T4 construct: endogenous in cells
T4 sequence (Q709F0 1-780): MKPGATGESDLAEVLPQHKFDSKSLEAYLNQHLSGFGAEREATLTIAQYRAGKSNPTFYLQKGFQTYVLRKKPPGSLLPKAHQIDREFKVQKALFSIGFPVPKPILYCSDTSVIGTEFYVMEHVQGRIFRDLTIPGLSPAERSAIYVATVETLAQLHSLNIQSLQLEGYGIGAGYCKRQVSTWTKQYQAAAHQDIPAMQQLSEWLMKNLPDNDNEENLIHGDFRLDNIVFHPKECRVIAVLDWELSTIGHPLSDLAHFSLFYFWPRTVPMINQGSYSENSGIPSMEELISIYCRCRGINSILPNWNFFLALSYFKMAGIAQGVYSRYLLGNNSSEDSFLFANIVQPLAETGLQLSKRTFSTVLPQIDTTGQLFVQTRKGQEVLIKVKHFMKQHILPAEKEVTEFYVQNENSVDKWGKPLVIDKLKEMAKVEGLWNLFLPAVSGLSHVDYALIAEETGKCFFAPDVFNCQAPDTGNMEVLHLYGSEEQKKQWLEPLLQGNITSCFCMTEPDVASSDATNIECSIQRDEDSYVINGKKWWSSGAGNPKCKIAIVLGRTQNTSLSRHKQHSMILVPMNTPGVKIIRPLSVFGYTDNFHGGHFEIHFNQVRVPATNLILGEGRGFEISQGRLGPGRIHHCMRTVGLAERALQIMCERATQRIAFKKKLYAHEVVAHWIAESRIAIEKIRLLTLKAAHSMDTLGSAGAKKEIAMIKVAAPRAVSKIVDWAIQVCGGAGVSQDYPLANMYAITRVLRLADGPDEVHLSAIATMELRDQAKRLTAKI

| Structure (SMILES) | CATDS (ACOX1) | CATDS (AAK1) | CATDS (ABL1) | CATDS (ABL2) | CATDS (ACAD11) | potency estimated from few doses (AAK1; sheet "Kinobeads Drugmatrix - all", unit inferred, same values below 1000 recur in sheet "nanomolar", read-out: Kinobeads Drugmatrix - all: apparent Kd, AAK1) [nM] | potency estimated from few doses (ACOX1) [nM] |
| --- | --- | --- | --- | --- | --- | --- | --- |
| COc1ccc(S(=O)(=O)NC2CCN(c3cc(C)nc(Nc4cccc(C#N)c4)n3)CC2)cc1 [GSK1653539A] | 0 | 0 | 0 | 0 | 0 | – | – |
| Nc1ncc(-c2ccc3nccc(-c4ccncc4)c3c2)cc1S(=O)(=O)N1CCCCC1 [GSK1693850A] | 0 | 0 | 0 | 0 | 0 | – | – |
| Cc1ccc(NC(=O)Nc2cc(C(C)(C)C)nn2-c2ccccc2)cc1 [GSK1014915A] | 0 | 0 | 0 | 0 | 0 | – | – |
| CCN1CCN(Cc2ccc(C(=O)Nc3ccc(C)c(Oc4ccc5c(c4)CC(=O)N5)c3)cc2C(F)(F)F)CC1 [DDR1-in-1] | 0 | 0 | 0 | 0 | 0 | – | – |
| Oc1ccc2ncnc(Nc3ccc(OCc4ccccc4)cc3)c2c1 [GI262866A] | 0.07628 | 0 | 0 | 0 | 0 | – | 830 |
| C[C@@H]1CCCCN1c1cc(-c2ccc3c(N)n[nH]c3c2)nc(N)n1 [GSK2258759A] | 0 | 0 | 0 | 0 | 0 | – | – |
| O=c1cc(N2CCOCC2)nc2n(Cc3cccc(C(F)(F)F)c3)ccn12 [GSK2297543A] | 0 | 0 | 0 | 0 | 0 | – | – |
| O=c1cc(N2CCOCC2)nc2n(Cc3cccc4ccccc34)ccn12 [GSK2333389A] | 0 | 0 | 0 | 0 | 0 | – | – |
| Cc1cccc(-c2cc(Nc3ccncc3)c3ccccc3n2)n1 [GSK223675A] | 0 | 0 | 0 | 0 | 0 | – | – |
| COc1cc2nc(-c3cc(F)ccc3O)nc(N[C@@H]3CNC[C@H]3C(C)(C)O)c2cc1OC [CCT241533] | 0 | 0 | 0 | 0 | 0 | – | – |
| Fc1ccc(-c2nc3n(c2-c2ccncc2)CCS3)cc1 [GI98581X] | 0 | 0 | 0 | 0 | 0 | – | – |
| O=c1cc(N2CCOCC2)nc2n(Cc3ccccc3F)ccn12 [GSK2297428A] | 0 | 0 | 0 | 0 | 0 | – | – |
| COc1cc2ncnc(Nc3ccc(F)c(Cl)c3)c2cc1O[C@H]1CC[C@H](N)CC1 [BIBW3133BS] | 0 | 0 | 0 | 0 | 0 | – | – |
| CC(C)NCC(Cc1ccccc1)NC(=O)c1cc(Br)c(-c2ccnc3[nH]ccc23)s1 (centres unmarked) [GSK1383281A] | 0 | 0 | 0 | 0 | 0 | – | – |
| O=c1cc(N2CCOCC2)nc2n(Cc3cccc(Cl)c3Cl)c3ccccc3n12 [GSK2299009A] | 0 | 0 | 0 | 0 | 0 | – | – |
| CSc1nn2c(=O)cc(N3CCOCC3)nc2n1Cc1cccc(C(F)(F)F)c1C [GSK2363608B] | 0 | 0 | 0 | 0 | 0 | – | – |
| O=c1[nH]cc(-c2ccc(O)cc2)c2sc(-c3ccncc3)cc12 [GSK1033723A] | 0 | 0 | 0 | 0 | 0 | – | – |
| Cc1ccc(NC(=O)c2ccc(Cl)cc2)cc1-c1ccc(C(=O)Nc2ccncc2)cc1 [GSK1398467A] | 0.2266 | 0 | 0 | 0 | 0 | – | 761 |
| Cn1cc(C2=C(c3cn(C4CCN(Cc5ccccn5)CC4)c4ccccc34)C(=O)NC2=O)c2ccccc21 [Enzastaurin, reference compound] | 0 | 0 | 0 | 0 | 0 | – | – |
| Cc1c(Cn2ccn3c(=O)cc(N4CCOCC4)nc23)cccc1C(F)(F)F [GSK2289044B] | 0 | 0 | 0 | 0 | 0 | – | – |
| NC[C@H](Cc1ccc(C(F)(F)F)cc1)NC(=O)c1cc(Br)c(-c2ccnc3[nH]ccc23)s1 [GSK1487252A] | 0 | 0 | 0 | 0 | 0 | – | – |

Continued, in another order:

| CATDS (ACOX1) | CATDS (AAK1) | CATDS (ABL1) | CATDS (ABL2) | CATDS (ACAD11) | potency estimated from few doses (AAK1; sheet "Kinobeads Drugmatrix - all", unit inferred, same values below 1000 recur in sheet "nanomolar", read-out: Kinobeads Drugmatrix - all: apparent Kd, AAK1) [nM] | Structure (SMILES) | potency estimated from few doses (ACOX1) [nM] |
| --- | --- | --- | --- | --- | --- | --- | --- |
| 0 | 0 | 0 | 0 | 0 | – | COc1cc2ncnc(Nc3cccc(Cl)c3F)c2cc1O[C@H]1CC[C@H]([C@@H]2NCCNC2=O)CC1 [BI00133844] | – |
| 0 | 0 | 0 | 0 | 0 | – | O=C(NCCNc1ccnc(Nc2ccc(F)cc2)n1)Nc1ccccc1F [GSK1379880A] | – |
| 0 | 0 | 0 | 0 | 0 | – | COc1cc(Nc2nccc(N3CCC(NC(=O)Nc4cccc(C(C)=O)c4)C3)n2)cc(OC)c1OC (centres unmarked) [GSK1379753A] | – |
| 0 | 0 | 0 | 0 | 0 | – | COc1ccc(Nc2nccc(N3CCC(NC(=O)C(C)c4ccc(Cl)cc4)C3)n2)cc1 (centres unmarked) [GSK1379735A] | – |
| 0 | 0 | 0 | 0 | 0 | – | COc1cc2c(cc1Nc1nc(Nc3ccsc3C(N)=O)c3cc[nH]c3n1)N(C(=O)CN(C)C)CCC2 [GSK2110236A] | – |
| 0 | 0 | 0 | 0 | 0 | – | CNS(=O)(=O)c1ccc(N(C)C)c(Nc2ncnc3cc(OC)c(OC)cc23)c1 [GSK114] | – |
| 0 | 0 | 0 | 0 | 0 | > 1000 | CN(C)C(=O)/C(C#N)=C/c1ccc(-c2nc3cnc4[nH]ccc4c3n2C2CCCCC2)o1 [FM-381] | – |
| 0 | 0 | 0 | 0 | 0 | – | CNC(=O)c1c(F)cccc1Nc1nc(Nc2cc3c(cc2OC)CCN3C(=O)CN(C)C)nc2[nH]ccc12 [GSK1838705] | – |
| 0 | 0 | 0 | 0 | 0 | – | COC(=O)C(NC(=O)NC1CCN(c2ccnc(Nc3ccc(F)cc3)n2)C1)c1ccccc1 (centres unmarked) [GSK1379712_KCGS] | – |
| 0 | 0 | 0 | 0 | 0 | – | O=C(NCCNc1ccnc(NCc2ccc(F)cc2)n1)c1cc2ccccc2s1 [GSK1379944A] | – |
